SMILES strings stand for the structures.

The subject of one experiment is WM-115. The experiment can be described thus: cells. In kind it is functional, cell-based. To be noted: Homo sapiens.
Description: SANGER: Inhibition of human WM-115 cell growth in a cell viability assay.
For `Cc1ccc(-n2nc(C(C)(C)C)cc2NC(=O)Nc2ccc(OCCN3CCOCC3)c3ccccc23)cc1` [DORAMAPIMOD], the IC50 is more than 10 µM.

For another experiment, the system named is A-431. The experiment can be described thus: cells. Type of experiment: functional, cell-based. To be noted: Homo sapiens.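 Note: growth inhibition of A-431 cells, determined with a cell viability read-out.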
Description: SANGER: Inhibition of human A431 cell growth in a cell viability assay.
`Cc1ccc(-n2nc(C(C)(C)C)cc2NC(=O)Nc2ccc(OCCN3CCOCC3)c3ccccc23)cc1` [DORAMAPIMOD] had a concentration for half-maximal inhibition (IC50) of more than 10 µM.

The test system of a further experiment is HT55. The experiment can be described thus: cells. Type of experiment: functional, cell-based. The following applies: Homo sapiens.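 Note: cell viability readout measuring growth inhibition of human HT55 cells.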
Description: SANGER: Inhibition of human HT55 cell growth in a cell viability assay.
Regarding `Cc1ccc(-n2nc(C(C)(C)C)cc2NC(=O)Nc2ccc(OCCN3CCOCC3)c3ccccc23)cc1` [DORAMAPIMOD], the IC50 is more than 10 µM.

Another experiment relates to NCI-H460. The experiment can be described thus: cells. In kind it is functional, cell-based. To be noted: Homo sapiens.
Description: SANGER: Inhibition of human NCI-H460 cell growth in a cell viability assay.
In the case of `Cc1ccc(-n2nc(C(C)(C)C)cc2NC(=O)Nc2ccc(OCCN3CCOCC3)c3ccccc23)cc1` [DORAMAPIMOD], the IC50 is more than 10 µM.

For a further experiment, the system named is MIA PaCa-2. The experiment can be described thus: cells. In kind it is functional, cell-based. To be noted: Homo sapiens.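 Note: growth inhibition of MIA PaCa-2 cells, read out with a cell viability assay.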
Description: SANGER: Inhibition of human MIA-PaCa-2 cell growth in a cell viability assay.
In turn, `Cc1ccc(-n2nc(C(C)(C)C)cc2NC(=O)Nc2ccc(OCCN3CCOCC3)c3ccccc23)cc1` [DORAMAPIMOD] came in with an IC50 of more than 10 µM.

Another experiment deals with 5637. The experiment can be described thus: cells. To be noted: Homo sapiens. In kind it is functional, cell-based.
Description: SANGER: Inhibition of human 5637 cell growth in a cell viability assay.
For `Cc1ccc(-n2nc(C(C)(C)C)cc2NC(=O)Nc2ccc(OCCN3CCOCC3)c3ccccc23)cc1` [DORAMAPIMOD], the IC50 was more than 10 µM.

A further experiment concerns MG-63. The experiment can be described thus: cells. In kind it is functional, cell-based. To be noted: Homo sapiens.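 Note: growth inhibition of human MG-63 cells, read out with a cell viability assay.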
Description: SANGER: Inhibition of human MG-63 cell growth in a cell viability assay.
In turn, `Cc1ccc(-n2nc(C(C)(C)C)cc2NC(=O)Nc2ccc(OCCN3CCOCC3)c3ccccc23)cc1` [DORAMAPIMOD] showed an IC50 of more than 10 µM.

The subject of another experiment is EW-22. The experiment can be described thus: cells. Type of experiment: functional, cell-based. The following applies: Homo sapiens.
Description: SANGER: Inhibition of human EW-22 cell growth in a cell viability assay.
Take `Cc1ccc(-n2nc(C(C)(C)C)cc2NC(=O)Nc2ccc(OCCN3CCOCC3)c3ccccc23)cc1` [DORAMAPIMOD]: the IC50 was more than 10 µM.

The next experiment relates to MKN-28. The experiment can be described thus: cells. In kind it is functional, cell-based. The following applies: Homo sapiens.
Description: SANGER: Inhibition of human MKN28 cell growth in a cell viability assay.
`Cc1ccc(-n2nc(C(C)(C)C)cc2NC(=O)Nc2ccc(OCCN3CCOCC3)c3ccccc23)cc1` [DORAMAPIMOD] yielded an IC50 of more than 10 µM.

The subject of another experiment is 23132-87. The experiment can be described thus: cells. In kind it is functional, cell-based. To be noted: Homo sapiens.
Description: SANGER: Inhibition of human 23132-87 cell growth in a cell viability assay.
`Cc1ccc(-n2nc(C(C)(C)C)cc2NC(=O)Nc2ccc(OCCN3CCOCC3)c3ccccc23)cc1` [DORAMAPIMOD] registered an IC50 of more than 10 µM.

In the next experiment the test system is BHT-101. The experiment can be described thus: cells. To be noted: Homo sapiens. Type of experiment: functional, cell-based.
Description: SANGER: Inhibition of human BHT-101 cell growth in a cell viability assay.
In the case of `Cc1ccc(-n2nc(C(C)(C)C)cc2NC(=O)Nc2ccc(OCCN3CCOCC3)c3ccccc23)cc1` [DORAMAPIMOD], the IC50 is more than 10 µM.

The next experiment concerns SK-N-AS. The experiment can be described thus: cells. Type of experiment: functional, cell-based. The following applies: Homo sapiens.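 Note: growth inhibition of human SK-N-AS cells, measured with a cell viability assay.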
Description: SANGER: Inhibition of human SK-N-AS cell growth in a cell viability assay.
`Cc1ccc(-n2nc(C(C)(C)C)cc2NC(=O)Nc2ccc(OCCN3CCOCC3)c3ccccc23)cc1` [DORAMAPIMOD] registered an IC50 of more than 10 µM.

Another experiment deals with U2OS. In words: cells. To be noted: Homo sapiens. Type of experiment: functional, cell-based, U-2-OS.
Description: SANGER: Inhibition of human U-2-OS cell growth in a cell viability assay.
`Cc1ccc(-n2nc(C(C)(C)C)cc2NC(=O)Nc2ccc(OCCN3CCOCC3)c3ccccc23)cc1` [DORAMAPIMOD] returned an IC50 of more than 10 µM.

Another experiment relates to NCI-H2347. In words: cells. In kind it is functional, cell-based. The following applies: Homo sapiens.
Description: SANGER: Inhibition of human NCI-H2347 cell growth in a cell viability assay.
For `Cc1ccc(-n2nc(C(C)(C)C)cc2NC(=O)Nc2ccc(OCCN3CCOCC3)c3ccccc23)cc1` [DORAMAPIMOD], the IC50 was more than 10 µM.

A further experiment deals with UMC-11. In words: cells. In kind it is functional, cell-based. To be noted: Homo sapiens.
Description: SANGER: Inhibition of human UMC-11 cell growth in a cell viability assay.
For the molecule `Cc1ccc(-n2nc(C(C)(C)C)cc2NC(=O)Nc2ccc(OCCN3CCOCC3)c3ccccc23)cc1` [DORAMAPIMOD], the IC50 was more than 10 µM.

The next experiment relates to HSC-3. The experiment can be described thus: cells. In kind it is functional, cell-based. The following applies: Homo sapiens.
Description: SANGER: Inhibition of human HSC-3 cell growth in a cell viability assay.
For the molecule `Cc1ccc(-n2nc(C(C)(C)C)cc2NC(=O)Nc2ccc(OCCN3CCOCC3)c3ccccc23)cc1` [DORAMAPIMOD], the 50% inhibitory concentration (IC50) was more than 10 µM.

The test system of the next experiment is EGI-1. The experiment can be described thus: cells. In kind it is functional, cell-based. The following applies: Homo sapiens.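 Note: cell viability readout used to gauge growth inhibition of EGI-1 cells.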
Description: SANGER: Inhibition of human EGI-1 cell growth in a cell viability assay.
In the case of `Cc1ccc(-n2nc(C(C)(C)C)cc2NC(=O)Nc2ccc(OCCN3CCOCC3)c3ccccc23)cc1` [DORAMAPIMOD], the half-maximal inhibitory concentration (IC50) was more than 10 µM.

In another experiment the test system is SF-295. In words: cells. In kind it is functional, cell-based. To be noted: Homo sapiens.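 Note: growth inhibition of SF-295 cells, read out with a cell viability assay.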
Description: SANGER: Inhibition of human SF295 cell growth in a cell viability assay.
The molecule `Cc1ccc(-n2nc(C(C)(C)C)cc2NC(=O)Nc2ccc(OCCN3CCOCC3)c3ccccc23)cc1` [DORAMAPIMOD] displayed an IC50 of more than 10 µM.

The next experiment deals with SW948. In words: cells. Type of experiment: functional, cell-based. To be noted: Homo sapiens.
Description: SANGER: Inhibition of human SW948 cell growth in a cell viability assay.
In turn, `Cc1ccc(-n2nc(C(C)(C)C)cc2NC(=O)Nc2ccc(OCCN3CCOCC3)c3ccccc23)cc1` [DORAMAPIMOD] came in with an IC50 of more than 10 µM.

Another experiment has as its system ChaGo-K-1. In words: cells. Type of experiment: functional, cell-based. To be noted: Homo sapiens.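 Note: growth inhibition of ChaGo-K-1 cells, read out with a cell viability assay.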
Description: SANGER: Inhibition of human ChaGo-K-1 cell growth in a cell viability assay.
On to `Cc1ccc(-n2nc(C(C)(C)C)cc2NC(=O)Nc2ccc(OCCN3CCOCC3)c3ccccc23)cc1` [DORAMAPIMOD], for which the IC50 is more than 10 µM.

The next experiment has as its system MFH-ino. The experiment can be described thus: cells. Type of experiment: functional, cell-based, Homo sapiens. The following applies: Homo sapiens, MFH-ino.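 Note: growth inhibition of human MFH-ino cells, read out by a cell viability assay.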
Description: SANGER: Inhibition of human MFH-ino cell growth in a cell viability assay.
Regarding `Cc1ccc(-n2nc(C(C)(C)C)cc2NC(=O)Nc2ccc(OCCN3CCOCC3)c3ccccc23)cc1` [DORAMAPIMOD], the IC50 is more than 10 µM.

In another experiment the test system is SK-MEL-30. The experiment can be described thus: cells. In kind it is functional, cell-based. The following applies: Homo sapiens.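 Note: growth inhibition of SK-MEL-30 cells, determined with a cell viability assay.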
Description: SANGER: Inhibition of human SK-MEL-30 cell growth in a cell viability assay.
As to `Cc1ccc(-n2nc(C(C)(C)C)cc2NC(=O)Nc2ccc(OCCN3CCOCC3)c3ccccc23)cc1` [DORAMAPIMOD], the IC50 was more than 10 µM.

The subject of a further experiment is CAL-72. The experiment can be described thus: cells. Type of experiment: functional, cell-based. To be noted: Homo sapiens.
Description: SANGER: Inhibition of human CAL-72 cell growth in a cell viability assay.
Regarding `Cc1ccc(-n2nc(C(C)(C)C)cc2NC(=O)Nc2ccc(OCCN3CCOCC3)c3ccccc23)cc1` [DORAMAPIMOD], the IC50 is more than 10 µM.

In a further experiment the test system is HPAF-II. In words: cells. Type of experiment: functional, cell-based. To be noted: Homo sapiens.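 Note: growth inhibition of HPAF-II cells, read out with a cell viability assay.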
Description: SANGER: Inhibition of human HPAF-II cell growth in a cell viability assay.
`Cc1ccc(-n2nc(C(C)(C)C)cc2NC(=O)Nc2ccc(OCCN3CCOCC3)c3ccccc23)cc1` [DORAMAPIMOD]: the IC50 was more than 10 µM.

The values above are taken from ChEMBL document CHEMBL1201861, “Genomics of Drug Sensitity in Cancer screening data, Wellcome Trust Sanger Institute”.
